Experimental findings from PubChem BioAssay (NCI) are described below.

Structures are written as SMILES.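 Where inhibition never reached the appropriate level, the endpoint shown equals the highest concentration tested. Otherwise, values were interpolated linearly from a five-concentration, 48-hour dose response in 96-well plates. GI50: concentration for 50% inhibition of growth. The concentration for full growth arrest is given as TGI.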

Some test systems named below: CAKI-1 renal; IGROV1 ovarian; M14 melanoma; MALME-3M melanoma; MDA-MB-435; MOLT-4 leukemia; RXF 393 renal; SF-268 CNS; SK-MEL-28 melanoma.
What all share (assay): inhibition of tumour cell growth, NCI panel, 48 h

Take `Cc1cccc(-c2nn3c(c2-c2ccnc4ccc(C(N)=O)cc24)CCC3)n1`: the GI50 in the assay on CAKI-1 renal was over 100 µM; with IGROV1 ovarian it was over 92.3 µM; with M14 melanoma it was over 91.9 µM; in the assay with MALME-3M melanoma, 57.2 µM; in the assay on MDA-MB-435, over 91.4 µM; in the assay with MOLT-4 leukemia, over 100 µM. The GI50 in the assay with RXF 393 renal, in the assay with SF-268 CNS and in the assay on SK-MEL-28 melanoma was over 100 µM each time. Besides, the TGI in the assay on CAKI-1 renal, in the assay on IGROV1 ovarian, in the assay on M14 melanoma, with MALME-3M melanoma, with MDA-MB-435 and in the assay with MOLT-4 leukemia was over 100 µM in each case. Further, the TGI with RXF 393 renal, in the assay on SF-268 CNS and with SK-MEL-28 melanoma was over 100 µM throughout.
As to `COc1cc2c(c(OC)c1O)-c1ccc(OC)c(=O)cc1[C@@H](NC(=O)C(F)(F)F)CC2`, the TGI was over 100 µM in the assay with CAKI-1 renal; 0.695 µM in the assay on IGROV1 ovarian; over 100 µM in the assay with M14 melanoma; over 100 µM in the assay on MALME-3M melanoma; 0.055 µM in the assay with MDA-MB-435; over 100 µM in the assay with MOLT-4 leukemia. Moreover, the TGI in the assay on SF-268 CNS and in the assay on SK-MEL-28 melanoma was over 100 µM throughout.
Turning to `O=C1/C(=C\c2ccc(F)cc2)CN(C(=O)c2ccc([N+](=O)[O-])cc2)C/C1=C\c1ccc(F)cc1`, the GI50 with CAKI-1 renal was 6.64 µM; in the assay with IGROV1 ovarian, 2.67 µM; in the assay with M14 melanoma, 2.28 µM; in the assay on MALME-3M melanoma it was 8.22 µM; in the assay on MDA-MB-435, 1.83 µM; in the assay with MOLT-4 leukemia it was 2.7 µM. For the same molecule, the GI50 was 1.53 µM in the assay with RXF 393 renal, 3.41 µM in the assay on SF-268 CNS and 3.72 µM with SK-MEL-28 melanoma. The TGI was over 100 µM in the assay on CAKI-1 renal; 11 µM in the assay on IGROV1 ovarian; 6.81 µM with M14 melanoma; 45.9 µM with MALME-3M melanoma; over 27.7 µM with MDA-MB-435; over 85.2 µM in the assay with MOLT-4 leukemia. Further, the TGI in the assay on RXF 393 renal was 3.19 µM; with SF-268 CNS, over 100 µM; in the assay with SK-MEL-28 melanoma, 15.1 µM.
Turning to `CCN(CC)CC.CCOc1ccc(NC(=O)N=C=[N-])cc1.[CH-]1CCCCC1.[CH-]1CCCCC1.[CH-]1CCCCC1.[Cl-].[Sn+4]`, the GI50 in the assay with CAKI-1 renal was 0.0282 µM; in the assay with IGROV1 ovarian, 0.0342 µM; with M14 melanoma, 0.0264 µM; with MALME-3M melanoma it was 0.0452 µM; in the assay on MDA-MB-435, 0.0151 µM; with MOLT-4 leukemia it was 0.0281 µM. Besides, the GI50 was 0.0146 µM with RXF 393 renal, 0.0332 µM with SF-268 CNS and 0.0349 µM in the assay with SK-MEL-28 melanoma. Moreover, the TGI in the assay with CAKI-1 renal came out at 0.0969 µM; in the assay on IGROV1 ovarian it was 0.115 µM; with M14 melanoma, 0.0727 µM; in the assay with MALME-3M melanoma it was 0.119 µM; with MDA-MB-435 it was 0.0296 µM; in the assay on MOLT-4 leukemia, 0.233 µM. For the same molecule, the TGI was found to be 0.0336 µM in the assay on RXF 393 renal, 0.0954 µM with SF-268 CNS and 0.088 µM in the assay on SK-MEL-28 melanoma.
For `Cc1ccc(-n2c3nc(=O)n(C)c(=O)c-3nc3ccccc32)cc1`, the TGI in the assay on CAKI-1 renal is 70.7 µM; in the assay on IGROV1 ovarian, 92.1 µM; with M14 melanoma, 32.7 µM; in the assay on MALME-3M melanoma, 27.2 µM; in the assay on MOLT-4 leukemia it was 41.2 µM; in the assay with RXF 393 renal, over 100 µM. Further, the TGI with SF-268 CNS was over 100 µM.
For the molecule `Cc1ccc(S(=O)(=O)Oc2ccc([N+](=O)[O-])cc2[N+](=O)[O-])cc1`, the GI50 with CAKI-1 renal is 2.03 µM; in the assay on IGROV1 ovarian it was 2.46 µM; in the assay on M14 melanoma, 2.57 µM; in the assay on MALME-3M melanoma, 10.7 µM; with MDA-MB-435, 3.1 µM; in the assay with MOLT-4 leukemia, 3.82 µM. Besides, the GI50 with RXF 393 renal is 7.89 µM; in the assay on SF-268 CNS it was 3.64 µM; in the assay on SK-MEL-28 melanoma, 13 µM. Further, the TGI in the assay on CAKI-1 renal worked out at 4.27 µM; in the assay on IGROV1 ovarian, 8.37 µM; in the assay on M14 melanoma, 10.9 µM; with MALME-3M melanoma it was 29.8 µM; in the assay with MDA-MB-435, 10.5 µM; in the assay on MOLT-4 leukemia, 55.1 µM. In addition, the TGI in the assay on RXF 393 renal is 20.7 µM; in the assay on SF-268 CNS it was 15 µM; in the assay with SK-MEL-28 melanoma, 26.4 µM.
For `O=C(CSc1nc2ccccc2nc1-c1ccccc1)Nc1ccc(Cl)cc1`, the GI50 in the assay with CAKI-1 renal is 12.5 µM; in the assay with IGROV1 ovarian, 46.4 µM; in the assay with M14 melanoma, 23.7 µM; in the assay on MALME-3M melanoma, 27.2 µM; in the assay on MDA-MB-435, 29.8 µM; in the assay with MOLT-4 leukemia, over 100 µM. Also, the GI50 in the assay on RXF 393 renal was 19.1 µM; in the assay with SF-268 CNS, 15.5 µM; in the assay on SK-MEL-28 melanoma, 60.8 µM. Further, the TGI in the assay with CAKI-1 renal is 38.1 µM; in the assay on IGROV1 ovarian it was over 100 µM; with M14 melanoma it was over 100 µM; in the assay with MALME-3M melanoma, 78 µM; in the assay with MDA-MB-435, over 100 µM; with MOLT-4 leukemia, over 100 µM. Also, the TGI is 62.7 µM in the assay with RXF 393 renal, 51.3 µM in the assay on SF-268 CNS and over 100 µM with SK-MEL-28 melanoma.
On to `N.N.N.N.O=NN1CCCCCC1(P(=O)([O-])[O-])P(=O)([O-])[O-].[Pt+4].[Pt+4]`, for which the GI50 in the assay with CAKI-1 renal, in the assay with IGROV1 ovarian, with M14 melanoma, with MALME-3M melanoma, in the assay with MOLT-4 leukemia and with RXF 393 renal was over 100 µM each time. The GI50 in the assay with SF-268 CNS and in the assay on SK-MEL-28 melanoma was over 100 µM each time. The TGI with CAKI-1 renal, with IGROV1 ovarian, in the assay on M14 melanoma, in the assay with MALME-3M melanoma, in the assay with MOLT-4 leukemia and in the assay with RXF 393 renal was over 100 µM throughout. For the same molecule, the TGI with SF-268 CNS and in the assay on SK-MEL-28 melanoma was over 100 µM each time.
In the case of `O=C1OC(c2ccccc2)=N/C1=C\c1ccc2ccccc2c1`, the TGI with CAKI-1 renal, in the assay on IGROV1 ovarian, with M14 melanoma, with MALME-3M melanoma, in the assay on MOLT-4 leukemia and in the assay on RXF 393 renal was over 100 µM in each case. Also, the TGI in the assay on SF-268 CNS and in the assay with SK-MEL-28 melanoma was over 100 µM each time.
Take `O=C(NCCO)c1cc2c(cn1)[nH]c1ccccc12`: the TGI was over 100 µM in the assay with CAKI-1 renal; over 100 µM in the assay on IGROV1 ovarian; over 100 µM in the assay on M14 melanoma; 43.9 µM in the assay on MALME-3M melanoma; over 100 µM in the assay on MOLT-4 leukemia; over 100 µM in the assay with RXF 393 renal. The TGI with SF-268 CNS and with SK-MEL-28 melanoma was over 100 µM each time.
